Data from patent US20090137664A1, “SAURURUS CERNUUS COMPOUNDS THAT INHIBIT CELLULAR RESPONSES TO HYPOXIA” (priority 2003, published 2009).

Legend:
[1] = tested on: MCF7; experiment: NCI in vitro cell line screen (SRB), Breast Cancer MCF7; format: cell-based
Procedure: (§1) For exemplary purposes, an embodiment of the present invention was tested for activity with respect to certain cancer cell lines. The following Tables show results from in vitro 60-cell line antitumor testing from the US National Cancer Institute Developmental Therapeutics Program (NCI-DTP) on compound 2. The testing was in connection with the NCI's In Vitro Cell Line Screening Project (IVCLSP). Detailed information regarding the experiments and their interpretation is available from the NCI.

[2] = tested on: SW-620; experiment: NCI in vitro cell line screen (SRB), Colon Cancer SW-620; format: cell-based
Procedure: as §1

[3] = tested on: TK-10; experiment: NCI in vitro cell line screen (SRB), Renal Cancer TK-10; format: cell-based
Procedure: as §1

[4] = tested on: U251; experiment: NCI in vitro cell line screen (SRB), CNS Cancer U251; format: cell-based
Procedure: as §1

[5] = tested on: MDA-MB-435; experiment: NCI in vitro cell line screen (SRB), Breast Cancer MDA-MB-435; format: cell-based
Procedure: as §1

[6] = tested on: A498; experiment: NCI in vitro cell line screen (SRB), Renal Cancer A498; format: cell-based
Procedure: as §1

[7] = tested on: pGL3 Control; experiment: luciferase expression from control plasmid pGL3 Control; format: cell-based, human
Procedure: The chemical structures of active compounds 1 and 2 are shown above. Compound 2 is the known compound manassantin B and 1 is a novel compound of the present invention. […] Similar results are obtained from separate experiments. The IC50 is 3 nM for 2 and 30 nM for 1. Complete inhibition is observed at 10 nM for 2 and 100 nM for 1.

[8] = tested on: PC-3; experiment: NCI in vitro cell line screen (SRB), Prostate Cancer PC-3; format: cell-based
Procedure: as §1

[9] = target: T1, recombinant VEGF protein standard (Homo sapiens, UniProt P15692); experiment: interference with the VEGF ELISA using VEGF standard
T1 construct: purchased R & D Systems
Procedure: The effects of compounds 1 and 2 on hypoxic induction of secreted VEGF protein are examined in T47D cells. Exponentially grown T47D cells are plated at the density of 30,000 cells/well into 96-well plates. Compound treatment and hypoxic exposure are the same as described. Following incubation, the concentration of secreted VEGF protein in the conditioned media is determined by ELISA (R & D Systems) and the data normalized by the number of viable cells. Results shown in FIG. 4 are averages from a representative experiment performed in quadruplicate, the bars represent standard error. An asterisk (*) indicates the level of significance (p<0.01) relative to the hypoxic control, two asterisks (**) (p<0.0001), and no asterisk indicates no statistical difference (ANOVA and Fisher's PLSD post hoc test).
As discussed earlier, one important HIF-1 target gene is VEGF, a key factor for tumor angiogenesis. Compounds that can inhibit both HIF-1 activation and the production of secreted VEGF protein represent potential efficacious chemotherapeutic agents that inhibit both tumor survival and hypoxia induced angiogenesis. […] Following incubation, the concentration of secreted VEGF protein in the conditioned media is determined by ELISA (R & D Systems) and the data normalized by the number of viable cells. […] The level of significance (p<0.01) is determined by ANOVA and Fisher's PLSD post hoc test. […]

[10] = Homo sapiens, read-out: LC50 (the source's name)

T1 sequence (P15692 27-191 isoform P15692-4): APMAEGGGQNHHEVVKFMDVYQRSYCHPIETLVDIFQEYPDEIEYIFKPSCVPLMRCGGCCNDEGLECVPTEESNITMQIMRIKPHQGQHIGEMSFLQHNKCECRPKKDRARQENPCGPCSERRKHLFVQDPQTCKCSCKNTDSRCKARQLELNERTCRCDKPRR

With `COc1ccc([C@@H](O)[C@@H](C)Oc2ccc([C@H]3O[C@H](c4ccc(O[C@H](C)[C@H](O)c5ccc6c(c5)OCO6)c(OC)c4)[C@H](C)[C@H]3C)cc2OC)cc1OC` [Compound 2, manassantin B] the TGI [1] was 9.51E−6 Molar, the GI50 ([1]; Homo sapiens) was 0.36 µM and the CC50 [1, 10] was > 100 µM. The “Mean Optical Densities” value ([1]; Log10 Concentration −4.0 Molar) was 0.191, the “Percent Growth” value ([1]; Log10 Concentration −4.0 Molar) was −40% and the “Mean Optical Densities” value ([1]; Log10 Concentration −5.0 Molar) was 0.316. The “Percent Growth” value ([1]; Log10 Concentration −5.0 Molar) was −1%, the “Mean Optical Densities” value ([1]; Log10 Concentration −6.0 Molar) was 0.758 and the “Percent Growth” value ([1]; Log10 Concentration −6.0 Molar) was 42%. The “Mean Optical Densities” value ([1]; Log10 Concentration −7.0 Molar) was 0.937, the “Percent Growth” value ([1]; Log10 Concentration −7.0 Molar) was 60% and the “Mean Optical Densities” value ([1]; Log10 Concentration −8.0 Molar) was 0.959. The “Percent Growth” value ([1]; Log10 Concentration −8.0 Molar) was 62%, the TGI [2] was >1.00E−4 Molar and the GI50 ([2]; Homo sapiens) was 6.51 µM. For the same molecule, the CC50 [2, 10] was > 100 µM, the “Mean Optical Densities” value ([2]; Log10 Concentration −4.0 Molar) was 0.396 and the “Percent Growth” value ([2]; Log10 Concentration −4.0 Molar) was 25%. For the same molecule, the “Mean Optical Densities” value ([2]; Log10 Concentration −5.0 Molar) was 0.544, the “Percent Growth” value ([2]; Log10 Concentration −5.0 Molar) was 42% and the “Mean Optical Densities” value ([2]; Log10 Concentration −6.0 Molar) was 0.949. For the same molecule, the “Percent Growth” value ([2]; Log10 Concentration −6.0 Molar) was 87%, the “Mean Optical Densities” value ([2]; Log10 Concentration −7.0 Molar) was 1.012 and the “Percent Growth” value ([2]; Log10 Concentration −7.0 Molar) was 94%. For the same molecule, the “Mean Optical Densities” value ([2]; Log10 Concentration −8.0 Molar) was 0.955, the “Percent Growth” value ([2]; Log10 Concentration −8.0 Molar) was 88% and the TGI [3] was >1.00E−4 Molar. The GI50 ([3]; Homo sapiens) was 4.15 µM, the CC50 [3, 10] was > 100 µM and the “Mean Optical Densities” value ([3]; Log10 Concentration −4.0 Molar) was 1.117. The “Percent Growth” value ([3]; Log10 Concentration −4.0 Molar) was 16%, the “Mean Optical Densities” value ([3]; Log10 Concentration −5.0 Molar) was 1.163 and the “Percent Growth” value ([3]; Log10 Concentration −5.0 Molar) was 22%. For the same molecule, the “Mean Optical Densities” value ([3]; Log10 Concentration −6.0 Molar) was 1.674, the “Percent Growth” value ([3]; Log10 Concentration −6.0 Molar) was 95% and the “Mean Optical Densities” value ([3]; Log10 Concentration −7.0 Molar) was 1.684. The “Percent Growth” value ([3]; Log10 Concentration −7.0 Molar) was 97%, the “Mean Optical Densities” value ([3]; Log10 Concentration −8.0 Molar) was 1.707 and the “Percent Growth” value ([3]; Log10 Concentration −8.0 Molar) was 100%. For the same molecule, the TGI [4] was 7.27E−5 Molar, the GI50 ([4]; Homo sapiens, U-251) was < 0.01 µM and the CC50 ([4]; Homo sapiens, U-251, read-out: LC50 (the source's name)) was > 100 µM. For the same molecule, the “Mean Optical Densities” value ([4]; Log10 Concentration −4.0 Molar) was 0.267, the “Percent Growth” value ([4]; Log10 Concentration −4.0 Molar) was −2% and the “Mean Optical Densities” value ([4]; Log10 Concentration −5.0 Molar) was 0.335. The “Percent Growth” value ([4]; Log10 Concentration −5.0 Molar) was 15%, the “Mean Optical Densities” value ([4]; Log10 Concentration −6.0 Molar) was 0.418 and the “Percent Growth” value ([4]; Log10 Concentration −6.0 Molar) was 35%. For the same molecule, the “Mean Optical Densities” value ([4]; Log10 Concentration −7.0 Molar) was 0.444, the “Percent Growth” value ([4]; Log10 Concentration −7.0 Molar) was 41% and the “Mean Optical Densities” value ([4]; Log10 Concentration −8.0 Molar) was 0.443. The “Percent Growth” value ([4]; Log10 Concentration −8.0 Molar) was 41%, the TGI [5] was >1.00E−4 Molar and the GI50 ([5]; Homo sapiens) was 1.88 µM. The CC50 [5, 10] was > 100 µM, the “Mean Optical Densities” value ([5]; Log10 Concentration −4.0 Molar) was 0.534 and the “Percent Growth” value ([5]; Log10 Concentration −4.0 Molar) was 1%. For the same molecule, the “Mean Optical Densities” value ([5]; Log10 Concentration −5.0 Molar) was 0.605, the “Percent Growth” value ([5]; Log10 Concentration −5.0 Molar) was 10% and the “Mean Optical Densities” value ([5]; Log10 Concentration −6.0 Molar) was 1.079. The “Percent Growth” value ([5]; Log10 Concentration −6.0 Molar) was 65%, the “Mean Optical Densities” value ([5]; Log10 Concentration −7.0 Molar) was 1.179 and the “Percent Growth” value ([5]; Log10 Concentration −7.0 Molar) was 77%. For the same molecule, the “Mean Optical Densities” value ([5]; Log10 Concentration −8.0 Molar) was 1.122, the “Percent Growth” value ([5]; Log10 Concentration −8.0 Molar) was 70% and the TGI [6] was >1.00E−4 Molar. For the same molecule, the GI50 ([6]; Homo sapiens) was 13.2 µM, the CC50 [6, 10] was > 100 µM and the “Mean Optical Densities” value ([6]; Log10 Concentration −4.0 Molar) was 1.223. The “Percent Growth” value ([6]; Log10 Concentration −4.0 Molar) was 14%, the “Mean Optical Densities” value ([6]; Log10 Concentration −5.0 Molar) was 1.343 and the “Percent Growth” value ([6]; Log10 Concentration −5.0 Molar) was 55%. The “Mean Optical Densities” value ([6]; Log10 Concentration −6.0 Molar) was 1.419, the “Percent Growth” value ([6]; Log10 Concentration −6.0 Molar) was 80% and the “Mean Optical Densities” value ([6]; Log10 Concentration −7.0 Molar) was 1.433. For the same molecule, the “Percent Growth” value ([6]; Log10 Concentration −7.0 Molar) was 85%, the “Mean Optical Densities” value ([6]; Log10 Concentration −8.0 Molar) was 1.414 and the “Percent Growth” value ([6]; Log10 Concentration −8.0 Molar) was 79%. The “luciferase expression from the pGL3-Control plasmid” value ([7]; 1,10-phenanthroline experiment (FIG. 5)) was “Neither compound exerts significant effect”, the “luciferase expression from the control plasmid (pGL3 Control)” value ([7]; hypoxia experiment (FIG. 3)) was “No statistically significant difference” and the TGI [8] was 1.77E−5 Molar. For the same molecule, the GI50 ([8]; Homo sapiens) was 2.37 µM, the CC50 [8, 10] was > 100 µM and the “Mean Optical Densities” value ([8]; Log10 Concentration −4.0 Molar) was 0.152. The “Percent Growth” value ([8]; Log10 Concentration −4.0 Molar) was −30%, the “Mean Optical Densities” value ([8]; Log10 Concentration −5.0 Molar) was 0.268 and the “Percent Growth” value ([8]; Log10 Concentration −5.0 Molar) was 10%. The “Mean Optical Densities” value ([8]; Log10 Concentration −6.0 Molar) was 0.588, the “Percent Growth” value ([8]; Log10 Concentration −6.0 Molar) was 74% and the “Mean Optical Densities” value ([8]; Log10 Concentration −7.0 Molar) was 0.668. The “Percent Growth” value ([8]; Log10 Concentration −7.0 Molar) was 90%, the “Mean Optical Densities” value ([8]; Log10 Concentration −8.0 Molar) was 0.665 and the “Percent Growth” value ([8]; Log10 Concentration −8.0 Molar) was 89%. The “interference with the ELISA assay” value [9] was “neither compound interferes”.
